According to PubChem BioAssay (NCI):
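Following 48 hours of exposure in 96-well plates, responses at five concentrations were used to interpolate endpoints linearly. TGI: total growth inhibition.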

Assays:
Experiment in all cases: growth of human tumour cells (NCI), 48 h
DLD-1 colon = test system: DLD-1 colon
DMS 114 small cell lung = test system: DMS 114 small cell lung
IGROV1 ovarian = test system: IGROV1 ovarian
KM12 colon = test system: KM12 colon
LXFL 529 NSCLC = test system: LXFL 529 NSCLC
M14 melanoma = test system: M14 melanoma
RPMI-8226 leukemia = test system: RPMI-8226 leukemia
RXF 393 renal = test system: RXF 393 renal

SMILES: COc1ccc(Nc2cnc3cc(N)ccc3n2)cc1OC
- TGI (DLD-1 colon): > 100 µM
- TGI (DMS 114 small cell lung): > 100 µM
- TGI (IGROV1 ovarian): > 100 µM
- TGI (KM12 colon): > 100 µM
- TGI (LXFL 529 NSCLC): > 100 µM
- TGI (M14 melanoma): > 100 µM
- TGI (RPMI-8226 leukemia): 86.2 µM
- TGI (RXF 393 renal): > 100 µM
